molecular target: T1, human vasopressin V2 receptor subtype (Homo sapiens, UniProt P30518); experiment: Vasopressin binding in CHO cell membranes expressing human vasopressin V2 subtype receptors ([3H]arginine vasopressin); conditions: 100 nM, values without parentheses
T1 construct: host or cells: CHO cells, stably transfected (pZeoSV vector); membranes
Source text: Vasopressin Binding in Chinese Hamster Ovary Cell Membranes Expressing Human Vasopressin V2 Subtype Receptors
Chinese Hamster Ovary (CHO) cells stably transfected with the human V2 subtype receptors were obtained from M. Thibonnier, Case Western Reserve University School of Medicine, Cleveland, Ohio.
A. Passaging and Amplification of Cells:
CHO cells transfected with the human vasopressin V2 subtype receptors obtained from M. Thibonnier (pZeoSV vector) are allowed to grow to confluency (approx. >90%) in T-150 flasks under sterile conditions, in a cell culture medium of F-12 Nutrient Mixture (HAM) with L-glutamine (Gibco Cat. #11765-054) containing 15 mM HEPES (Gibco Cat. #15630-080), 1% antibiotic/antimycotic (add 5 mL 100×, Gibco Cat. #15240-062 per 500 mL F-12), 250 μg/mL Zeocin (add 1.25 mL of 100 mg/mL Invitrogen R-250-01 per 500 mL F-12) and 10% Fetal Bovine Serum (Qualified, heat inactivated, Gibco Cat. #16140-063). The medium is removed by aspiration and the cells washed with 10 mL of Hank's Balanced Salt solution (Gibco Cat. #14175-095). The salt solution is removed by aspiration and the cells trypsinized with 5 mL of trypsin-EDTA (0.05% trypsin, 0.53 mM EDTA-4Na, Gibco Cat. #25300-070) for 1 min. The trypsin is removed by aspiration and the cells dislodged by tapping. Cell Culture medium (e.g. 30 mL for 1:30 split) is immediately added and mixed well to inactivate trypsin. 1 mL of detached cells is added to new culture flasks containing fresh Cell Culture medium (e.g. into 25 mL per T-150 flask), and mixed gently. The cells are incubated at 37° C. in 5% CO2. The medium is changed at 3 to 4 day interval (or as appropriate). The cells grow to confluency (approx. >75%–95%) within 7–8 days. All steps are done under sterile conditions. B. Membrane Preparation: The cells are washed twice gently with Hank's Balanced Salt solution (e.g. use 10 mL per T-150 flask). The excess solution is removed and the cells bathed for 15–30 min. in an enzyme-free Cell Dissociation Buffer (e.g. use 8 mL Hank's Based, Gibco Cat. # 13150-016 per T-150 flask) until cells are loosened. The contents are transferred to centrifuge tubes (50 mL size) kept in ice bath. All subsequent steps are done at 4° C. The tubes are centrifuged at 300×g for 15 min (1380 rpm on SORVAL, Model RT6000D, using rotor for 50 mL tubes). The supernatant is discarded and the cells suspended in homogeneizing buffer (10 mM Tris-HCl containing 0.25 M sucrose and 1 mM EDTA, pH 7.4) ensuring that the volume of the buffer is about ten times the volume of the cell pellet. The cells are pooled into a centrifuge tube (50 mL) and homogenized with Polytron at setting 6 for 10 sec. The homogenate is transferred into a Potter-Elvjehm homogeneizer and homogenized with 3 strokes. The homogenate is centrifuged at 1500×g for 60 min at 4° C. (3100 rpm using SORVAL, model RT6000D, using rotor for 50 mL tubes). The pellet is discarded. The supernatant is centrifuged at 100,000×g for 60 min. at 4° C. (Beckman L8-80M ultracentrifuge; spin at 37,500 rpm with rotor type 70 Ti for 50 mL tubes; 38,000 rpm with type 80Ti for 15 mL tubes; or 35,800 rpm with rotor type 45Ti). The supernantant is discarded and the pellet suspended in 3 to 4 mL of Tris buffer (50 mM TRIS-HCl, pH 7.4). The protein content is estimated by the Bradford or Lowry method. The volume of the membrane suspension is adjusted with the membrane buffer (50 mM Tris-HCl containing 0.1% BSA and 0.1 mM PMSF) to give 3.0 mg/mL (or as appropriate) of protein. The membranes are aliquoted and stored at −70° C. C. Radioligand Binding Assay:
In wells of a 96-well format microtiter plate, is added 90, 110 or 130 μL (to make up a final volume of 200 μL) of assay buffer containing 50 mM of Tris-HCl (pH 7.4), […], 1 mg % aprotinin, 1 mg % leupeptin, 2 mg % 1,10-phenanthroline, 10 mg % trypsin inhibitor, and 0.1 mM PMSF. The inhibitors are added on the day of the experiment. […]

T1 sequence (P30518 whole entry): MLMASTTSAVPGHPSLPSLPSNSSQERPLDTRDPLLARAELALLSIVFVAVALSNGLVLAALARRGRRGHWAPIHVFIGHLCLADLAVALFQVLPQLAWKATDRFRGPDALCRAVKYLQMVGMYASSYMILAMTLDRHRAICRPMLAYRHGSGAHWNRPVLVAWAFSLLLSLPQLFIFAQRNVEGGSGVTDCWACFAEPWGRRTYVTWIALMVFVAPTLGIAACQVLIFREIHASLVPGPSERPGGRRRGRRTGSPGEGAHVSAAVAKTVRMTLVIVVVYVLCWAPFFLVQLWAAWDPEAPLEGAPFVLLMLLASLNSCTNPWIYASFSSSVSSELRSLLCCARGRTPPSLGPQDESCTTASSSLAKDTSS

Compound | inhibition at 0.1 µM [%] | V2 % inhibition @ 100 nM [%]
CC1=C(c2ccc(C(=O)N3Cc4cccn4Cc4ccccc43)cc2C)CCCC1=O [Example 4, 3-[2-Methyl-4-(5H-pyrrolo[2,1-c][1,4]benzodiazepin-10(11H)-yl-carbonyl)phenyl]-2-methyl-cyclohex-2-en-1-one] | 74 | 
CC1=C(c2ccc(C(=O)N3Cc4cccn4Cc4ccccc43)cc2C)CCCC1N (stereo not drawn) [Example 45, [4-(3-Amino-2-methyl-cyclohex-1-en-1-yl)-3-methyl-phenyl]-(10,11-dihydro-5H-pyrrolo[2,1-c][1,4]benzodiazepin-10-yl)-methanone] | 27 | 
CC1(C)C2CC=C(c3ccc(C(=O)N4Cc5cccn5Cc5ccccc54)cc3)C1C2 (stereo not drawn) [Example 22, (10,11-Dihydro-5H-pyrrolo[2,1-c][1,4]benzodiazepin-10-yl)-[4-(6,6-dimethyl-bicyclo[3.1.1]hept-2-en-2-yl)-phenyl]-methanone] | 17 | 
Cc1cc(C(=O)N2Cc3cccn3Cc3ccccc32)ccc1C1=CCC2CCC1C2 (stereo not drawn) [Example 35, (10,11-Dihydro-5H-pyrrolo[2,1-c][1,4]benzodiazepin-10-yl)-(4-bicyclo[3.2.1]oct-2-en-2-yl-3-methyl-phenyl)-methanone] | 18 | 
O=C1C=C(c2ccc(C(=O)N3Cc4cccn4Cc4ccccc43)cc2)CCC1 [Example 24, 3-[4-(10,11-Dihydro-5H-pyrrolo[2,1-c][1,4]benzodiazepine-10-carbonyl)-phenyl]-cyclohex-2-en-1-one] | 29 | 
O=C(c1ccc(C2=CCCc3ccccc32)cc1Cl)N1Cc2cccn2Cc2ccccc21 [Example 11, (10,11-Dihydro-5H-pyrrolo[2,1-c][1,4]benzodiazepin-10-yl)-[2-chloro-4-(3,4-dihydro-naphthalen-1-yl)-phenyl]-methanone] | 90 | 
COc1cc(C2=CCCc3ccccc32)c(Cl)cc1C(=O)N1Cc2cccn2Cc2ccccc21 [Example 8, 10-[5-Chloro-4-(3,4-dihydro-naphthalen-1-yl)-2-methoxybenzoyl]-10,11-dihydro-5H-pyrrolo[2,1-c][1,4]benzodiazepine] | 77 | 
CC1=C(c2ccc(C(=O)N3Cc4cccn4Cc4ccccc43)cc2C)CCCC1O (racemic) [Example 5, (10,11-Dihydro-5H-pyrrolo[2,1-c][1,4]benzodiazepin-10-yl)-[4-(3-hydroxy-2-methyl-cyclohex-1-en-1-yl)-3-methyl-phenyl]-methanone] | 2 | 
CC(C)(C)C1CCCC=C1c1ccc(C(=O)N2Cc3cccn3Cc3ccccc32)cc1 (stereo not drawn) [Example 20, (10,11-5H-Dihydro-pyrrolo[2,1-c][1,4]benzodiazepin-10-yl)-[4-(6-tert-butyl-cyclohex-1-en-1-yl)-phenyl]-methanone] |  | 10
CC1=C(c2ccc(C(=O)N3Cc4cccn4Cc4ccccc43)cc2)CCCC1=O [Example 26, 3-[4-(10,11-Dihydro-5H-pyrrolo[2,1-c][1,4]benzodiazepine-10-carbonyl)-phenyl]-2-methyl-cyclohex-2-en-1-one] | 58 | 
CC1(C)CCCC=C1c1ccc(C(=O)N2Cc3cccn3Cc3ccccc32)c(Cl)c1 [Example 12, (10,11-Dihydro-5H-pyrrolo[2,1-c][1,4]benzodiazepin-10-yl)-[2-chloro-4-(6,6-dimethyl-cyclohex-1-en-1-yl)-phenyl]-methanone] | 82 | 
CC1=C(c2ccc(C(=O)N3Cc4cccn4Cc4ccccc43)cc2C)CCC[C@@H]1O (single isomer, unassigned) [Example 43] | 45 | 
CC1=C(c2ccc(C(=O)N3Cc4cccn4Cc4ccccc43)cc2)CCCC1O (stereo not drawn) [Example 27, (10,11-Dihydro-5H-pyrrolo[2,1-c][1,4]benzodiazepin-10-yl)-[4-(3-hydroxy-2-methyl-cyclohex-1-en-1-yl)-phenyl]-methanone] | 58 | 
CC1(C)C=C(c2ccc(C(=O)N3Cc4cccn4Cc4ccccc43)cc2)CC(C)(C)C1 [Example 23, (10,11-Dihydro-5H-pyrrolo[2,1-c][1,4]benzodiazepin-10-yl)-[4-(3,3,5,5-tetramethyl-cyclohex-1-en-1-yl)-phenyl]-methanone] | 18 | 
CC1=C(c2ccc(C(=O)N3Cc4cccn4Cc4ccccc43)c(Cl)c2)CCCC1=O [Example 13, (10,11-Dihydro-5H-pyrrolo[2,1-c][1,4]benzodiazepin-10-yl)-[2-chloro-4-(2-methyl-3-oxo-cyclohex-1-en-1-yl)-phenyl]-methanone] | 55 | 
O=C(c1ccc(C2=CCCCC2)cc1Cl)N1Cc2cccn2Cc2ccccc21 [Example 10, (10,11-dihydro-5H-pyrrolo[2,1-c][1,4]benzodiazepin-10-yl)-[2-chloro-4-(cyclohex-1-en1-yl)-phenyl]-methanone] | 65 | 
Cc1cc(C(=O)N2Cc3cccn3Cc3ccccc32)ccc1C1=CCCCC1 [Example 2, (10,11-Dihydro-5H-pyrrolo[2,1-c][1,4]benzodiazepin-10-yl)-(4-cyclohex-1-en-1-yl-3-methyl-phenyl)-methanone] | 42 | 
Cc1cc(C(=O)N2Cc3cccn3Cc3ccccc32)ccc1C1=CCCCC1(C)C [Example 30, (10,11-Dihydro-5H-pyrrolo[2,1-c][1,4]benzodiazepin-10-yl)-[4-(6,6-dimethyl-cyclohex-1-en-1-yl)-3-methyl-phenyl]-methanone] | 13 | 
CC1=C(c2ccc(C(=O)N3Cc4cccn4Cc4ccccc43)cc2)C(C)CCC1 (stereo not drawn) [Example 19, (10,11-Dihydro-5H-pyrrolo[2,1-c][1,4]benzodiazepin-10-yl)-[4-(2,6-dimethyl-cyclohex-1-en-1-yl)-phenyl]-methanone] | 5 | 
CO[C@@H]1CCCC(c2ccc(C(=O)N3Cc4cccn4Cc4ccccc43)cc2C)=C1C [Example 44, 10-{4-[(3R)-3-Methoxy-2-methylcyclohex-1-en-1-yl]-3-methylbenzoyl}-10,11-dihydro-5H-pyrrolo[2,1-c][1,4]benzodiazepine] | 86 | 

same assay, conditions: values in parentheses

Compound | IC50 [nM]
CC1CCCC=C1c1ccc(C(=O)N2Cc3cccn3Cc3ccccc32)cc1 (stereo not drawn) [Example 16, (10,11-Dihydro-5H-pyrrolo[2,1-c][1,4]benzodiazepin-10-yl)-[4-(6-methyl-cyclohex-1-en-1-yl)-phenyl]-methanone] | 295
COc1cc(C2=CCCCC2)c(Cl)cc1C(=O)N1Cc2cccn2Cc2ccccc21 [Example 1, 10-(5-Chloro-4-cyclohex-1-en-1-yl-2-methoxybenzoyl)-10,11-dihydro-5H-pyrrolo[2,1-c][1,4]benzodiazepine] | 176
Cc1cc(C(=O)N2Cc3cccn3Cc3ccccc32)ccc1C1=CCCc2ccccc21 [Example 3, (10,11-Dihydro-5H-pyrrolo[2,1-c][1,4]benzodiazepin-10-yl)-[4-(3,4-dihydro-naphthalen-1-yl)-3-methyl-phenyl]-methanone] | 66
CC1=C(c2ccc(C(=O)N3Cc4cccn4Cc4ccccc43)cc2)CCCC1 [Example 7, (10,11-Dihydro-5H-pyrrolo[2,1-c][1,4]benzodiazepin-10-yl)-[4-(2-methyl-cyclohex-1-en-1-yl)-phenyl]-methanone] | 162
